The values that follow come from patent US20140234988A1, “Methods for Diagnosing and Treating Medical Conditions Associated With Oxidative Stress” (priority 2011, published 2014).

For assay [1], the target named is human serum albumin, binding site II (plasma of patients with sepsis) (Homo sapiens, UniProt P02768). The conditions noted are these: septic group vs controls.
Protocol: (§1) Plasma albumin concentrations were determined by using an automatic clinical chemical analyser (EuroLyser, Eurolyser Diagnostica, Salzburg, Austria).
Serum samples were diluted with PBS and adjusted to an albumin concentration of 40 μM. Based on the 40 μM sample, a dilution series with final concentrations of 20 μM, 10 μM, and 5 μM albumin (in PBS) was made. Each of these samples (250 μl) was mixed with the same volume of 10 μM DS (Sigma-Aldrich, Vienna, Austria) solution. Unbound DS molecules were separated from the plasma components via ultrafiltration (Ultrafree-MC reg. Cellulose 30K, Millipore, Vienna, Austria) at 500 g for 10 min at room temperature. 150 μl of the flow through were put into HPLC vials. As a control, 10 μM DS was diluted with the same volume of Millipore water and ultrafiltered as described. For an external standard curve, a dilution series of DS with Millipore water (10 μM, 5 μM, 2.5 μM, and 1.25 μM) was prepared. 20 μl of the filtrate were then injected to the HPLC system. […] DS was detected by means of determining fluorescence at 482/350 nm using a Hitachi F1050 (Merck) detector. Quantificaton via the peak heights was done using the EZ Chrom Elite chromatography software (VWR, Vienna, Austria). From the straight line obtained by the graph of ln (free DS) vs. albumin, the albumin concentration binding half of the ligand was calculated and given as IC50 (μmol/l). […]
For assay [2], the target named is human serum albumin, binding site II (plasma of patients with cirrhosis) (Homo sapiens, UniProt P02768). The conditions noted are these: cirrhotic patients vs controls.
Sequence of human serum albumin, binding site II (plasma of patients with cirrhosis) (P02768 25-609): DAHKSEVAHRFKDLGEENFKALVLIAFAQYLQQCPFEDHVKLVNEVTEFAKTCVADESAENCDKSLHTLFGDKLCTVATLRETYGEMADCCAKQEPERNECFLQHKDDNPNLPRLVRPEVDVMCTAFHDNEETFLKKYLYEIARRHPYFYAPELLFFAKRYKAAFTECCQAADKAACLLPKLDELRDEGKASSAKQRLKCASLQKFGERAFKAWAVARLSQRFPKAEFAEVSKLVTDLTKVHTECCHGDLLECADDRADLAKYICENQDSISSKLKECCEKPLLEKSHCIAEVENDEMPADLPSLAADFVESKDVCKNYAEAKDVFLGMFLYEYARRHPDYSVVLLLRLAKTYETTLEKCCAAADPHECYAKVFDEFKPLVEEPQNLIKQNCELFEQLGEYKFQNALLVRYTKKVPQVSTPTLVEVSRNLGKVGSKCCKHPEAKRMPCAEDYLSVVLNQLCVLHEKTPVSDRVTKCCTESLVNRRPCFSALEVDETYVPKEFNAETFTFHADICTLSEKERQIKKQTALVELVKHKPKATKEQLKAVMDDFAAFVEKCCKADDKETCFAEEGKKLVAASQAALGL
Description: (§2) In blood samples derived from the study population (9 consecutive patients with acute-on-chronic liver failure (ACLF) being evaluated for extracorporeal liver support and 20 patients with cirrhosis who were candidates for liver transplantation), albumin was fractionated by HPLC as previously described (Kawai, K. et al. (2001) Tokai J. Exp. Clin. Med. 26, 93-99) resulting in three protein fractions representing cysteine 34 as free sulfhydryl form (HMA), as mixed disulfide (HNA1), or in a higher oxidation state (HNA2).
as §1
(§3) Serum samples were diluted with PBS and adjusted to an albumin concentration of 40 μM. Based on the 40 μM sample, a dilution series with final concentrations of 20 μM, 10 μM, and 5 μM albumin (in PBS) was made. Each of these samples (250 μl) was mixed with the same volume of 10 μM DS (Sigma-Aldrich, Vienna, Austria) solution. […] DS was detected by means of determining fluorescence at 482/350 nm using a Hitachi F1050 (Merck) detector. Quantificaton via the peak heights was done using the EZ Chrom Elite chromatography software (VWR, Vienna, Austria). From the straight line obtained by the graph of ln (free DS) vs. albumin, the albumin concentration binding half of the ligand was calculated and given as IC50 (μmol/l).
Assay [3] has as its target human serum albumin, binding site II (plasma of patients with acute-on-chronic liver failure, ACLF) (Homo sapiens, UniProt P02768). The following applies: ACLF group vs controls.
Description: as §2, §1, §3

Structures are written as SMILES.

Sequence of human serum albumin, binding site II (plasma of patients with sepsis) (P02768 25-609): as above
Sequence of human serum albumin, binding site II (plasma of patients with acute-on-chronic liver failure, ACLF) (P02768 25-609): as above

For the compound `CN(C)c1cccc2c(S(=O)(=O)N(C)CC(=O)O)cccc12` [dansylsarcosine], the “IC50-values, compared with controls” value was “IC50-values were increased in the septic and ACLF group” in assay [1]; “IC50-values were increased in the septic and ACLF group” in assay [3]. In addition, in assay [2], the “DS binding, compared with controls” value was “no difference in DS binding between controls and cirrhotic patients”.
